Data on 11 molecules can be found in article PMC6181319, “Thermodynamic and computational analyses reveal the functional roles of the galloyl group of tea catechins in molecular recognition” (PLoS ONE, 2018).

A word on the ΔTm: it is the change in melting temperature against a reference sample. As usually defined, the Kd is the concentration at which binding is half-saturated.

Data set [1] addresses T1, human serum albumin (HSA) (Homo sapiens, UniProt P02768). Nature of the data set: Differential scanning calorimetry (DSC), thermal stability of HSA–ligand complexes. As to conditions: for Tm: DSC, HSA 50 μM, ligand 500 μM, 50 mM sodium phosphate pH 6.8, HSA alone 68.6 ± 0.1; for ΔTm at 500 µM: human, pH 6.8.
Description: The thermal stabilities of HSA and the HSA–ligand complexes were determined by differential scanning calorimetry in a VP-DSC autosampler instrument (GE Healthcare). The cell was heated from 303 to 363 K at a rate of 1 K min^−1. The concentrations of HSA and the ligands were 50 and 500 μM, respectively, in a buffer composed of 50 mM sodium phosphate (pH 6.8). The data analysis was carried out with the Origin software (ver. 7) using a two-state model.
In data set [2] the target is T1, human serum albumin (HSA). In words: Isothermal titration calorimetry (ITC) of binding of catechins and analogs to HSA. As to conditions: for change of binding affinity with addition of 0.2 M NaCl: 0.2 M NaCl versus no NaCl. Also noted: purchased Sigma-Aldrich Japan (Tokyo, Japan). The procedure:
The binding of the catechins and its analogs to HSA was examined in a VP-ITC instrument (Microcal Northampton, MA). […] The data were analyzed with the Origin software (ver. 7) by means of a single-binding-site model. The thermodynamic parameters were obtained from three replicate titrations, where the dilution heats of the ligands were subtracted.
In general terms: ITC needs no label: the signal is the heat of the interaction.

[3] abbreviates: human serum albumin (HSA) 50 µM in buffer.
The mark [4] stands for this setting: S1 Table, ITC binding affinity listed beside Tm, read-out: KD.
The mark [5] stands for this setting: Table 1, ITC, 298 K, 50 mM sodium phosphate pH 6.8.
The mark [6] stands for this setting: Table 1, ITC, 298 K, 50 mM sodium phosphate pH 6.8, HSA 50 μM, single-binding-site model.
The mark [7] stands for this setting: Table 1, ITC, 298 K, 50 mM sodium phosphate pH 6.8, read-out: KD.
Where [8] appears, read: S2 Table, NaCl 0 M, read-out: KD.
The mark [9] stands for this setting: S2 Table, NaCl 0.2 M, read-out: KD.
[10] abbreviates: Table 2, methylated catechin derivatives, ITC, 298 K.
[11] abbreviates: Table 2, methylated catechin derivatives, ITC, 298 K, 50 mM sodium phosphate pH 6.8.
[12] abbreviates: Table 2, methylated catechin derivatives, ITC, 298 K, 50 mM sodium phosphate pH 6.8, read-out: KD.

Where two headings read alike, the source gives them in different places. Marks after values point to notes of the source that are not given here.

T1 sequence (P02768 25-609): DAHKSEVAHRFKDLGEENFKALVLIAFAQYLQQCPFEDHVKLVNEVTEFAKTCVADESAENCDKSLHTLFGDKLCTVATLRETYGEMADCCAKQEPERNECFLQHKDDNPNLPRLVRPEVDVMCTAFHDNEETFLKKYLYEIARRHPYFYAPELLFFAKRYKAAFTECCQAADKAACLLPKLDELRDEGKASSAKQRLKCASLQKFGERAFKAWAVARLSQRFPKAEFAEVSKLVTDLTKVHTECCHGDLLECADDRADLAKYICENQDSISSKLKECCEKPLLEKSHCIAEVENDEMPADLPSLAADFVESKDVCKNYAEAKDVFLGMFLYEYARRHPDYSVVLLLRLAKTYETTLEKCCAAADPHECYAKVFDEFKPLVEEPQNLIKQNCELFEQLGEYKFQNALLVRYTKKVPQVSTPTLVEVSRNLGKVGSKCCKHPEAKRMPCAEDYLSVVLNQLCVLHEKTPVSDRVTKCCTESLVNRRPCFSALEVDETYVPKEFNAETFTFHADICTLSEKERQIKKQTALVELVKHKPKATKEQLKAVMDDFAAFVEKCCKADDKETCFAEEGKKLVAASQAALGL

`Oc1cc(O)c2c(c1)O[C@@H](c1ccc(O)c(O)c1)[C@H](O)C2` [C, (+)-catechin]: the Tm in data set [1] came to 68.5 ± 0.1 °C. For the same molecule, in data set [1] (setting [3]), the ΔTm at 500 µM was -0.1 °C. Further, the Kd in data set [2] (setting [4]) came to 5 ± 8.6 µM. Also, the ΔH/ΔG in data set [2] (Table 1, ITC, 298 K) turned out to be 4%. For the same molecule, in data set [2] (setting [5]), the ΔG is -29.7 ± 2.5 kJ/mol, the ΔH was -1.3 ± 0.42 kJ/mol and the “−TΔS” value is -28.5 ± 2.9 kJ/mol. For the same molecule, in data set [2] (setting [6]), the “N (number of binding sites)” value was 1.0 ± 0.2. The Kd in data set [2] (setting [7]) is 5 ± 8.6 µM.
Turning to `O=C(O[C@@H]1Cc2c(O)cc(O)cc2O[C@H]1c1ccc(O)c(O)c1)c1cc(O)c(O)c(O)c1` [Cg, (−)-catechin gallate], the Tm in data set [1] was determined as 71.7 ± 0.1 °C. Besides, in data set [1] (setting [3]), the ΔTm at 500 µM turned out to be 3.1 °C. For the same molecule, in data set [2] (ITC, 298 K), the “thermodynamic profile of binding (enthalpy-driven or entropy-driven)” value (shortened to “thermodynamic profile of binding”) was “entropy-driven”. Further, the Kd in data set [2] (setting [4]) is 3.5 ± 0.5 µM. In addition, the ΔH/ΔG in data set [2] (Table 1, ITC, 298 K) is 38%. For the same molecule, in data set [2] (setting [5]), the ΔG is -31 ± 0.42 kJ/mol, the ΔH is -11.7 ± 2.5 kJ/mol and the “−TΔS” value is -19.2 ± 2.9 kJ/mol. Also, in data set [2] (setting [6]), the “N (number of binding sites)” value is 1.0 ± 0.1. Moreover, the Kd in data set [2] (setting [7]) was determined as 3.5 ± 0.5 µM.
Take `Oc1cc(O)c2c(c1)O[C@H](c1ccc(O)c(O)c1)[C@H](O)C2` [EC, (−)-epicatechin]: in data set [1], the Tm amounted to 68.7 ± 0.3 °C. For the same molecule, in data set [1] (setting [3]), the ΔTm at 500 µM is 0 °C. Also, the “change of binding affinity with addition of 0.2 M NaCl” value (“change of binding affinity” for short) in data set [2] (ITC) is given as “increased”. The “thermodynamic profile of binding” value in data set [2] (ITC, 298 K) is reported as “entropy-driven”. The Kd was 49 ± 18 µM in data set [2] (setting [4]), 48.7 µM in data set [2] (setting [8]), 0.7 µM in data set [2] (setting [9]) and 49 ± 18 µM in data set [2] (setting [7]). In data set [2] (Table 1, ITC, 298 K), the ΔH/ΔG was 13%. The molecule further gave a ΔG in data set [2] (setting [5]) of -24.3 ± 0.84 kJ/mol. This molecule also showed a ΔH in data set [2] (setting [5]) of -3.3 ± 0.84 kJ/mol. Moreover, the “−TΔS” value in data set [2] (setting [5]) is -21.3 ± 1.7 kJ/mol. Also, the “N (number of binding sites)” value in data set [2] (setting [6]) is given as 1.0 ^b.
With `O=C(O[C@@H]1Cc2c(O)cc(O)cc2O[C@@H]1c1ccc(O)c(O)c1)c1cc(O)c(O)c(O)c1` [ECg, (−)-epicatechin gallate], in data set [1], the Tm was 72.2 ± 0.1 °C. Further, the ΔTm at 500 µM in data set [1] (setting [3]) was found to be 3.5 °C. Also, in data set [2] (ITC), the “change of binding affinity” value was “decreased”. Besides, in data set [2] (ITC, 298 K), the “thermodynamic profile of binding” value was “enthalpy-driven”. For the same molecule, the Kd in data set [2] (setting [4]) turned out to be 1.1 ± 0.1 µM. Also, the Kd in data set [2] (setting [9]) worked out at 3.7 µM. The molecule also had a ΔH/ΔG in data set [2] (Table 1, ITC, 298 K) of 63%. For the same molecule, in data set [2] (setting [5]), the ΔG is -33.9 ± 0.42 kJ/mol, the ΔH was -21.3 ± 2.1 kJ/mol and the “−TΔS” value is -13 ± 2.1 kJ/mol. Moreover, in data set [2] (setting [6]), the “N (number of binding sites)” value turned out to be 1.0 ± 0.1. Moreover, the Kd in data set [2] (setting [7]) amounted to 1.1 ± 0.1 µM.
With `COc1cc([C@H]2Oc3cc(O)cc(O)c3C[C@H]2OC(=O)c2cc(O)c(O)c(O)c2)cc(O)c1O` [EGCg-3′-O-Me, (−)-Epigallocatechin-3′-O-methylether gallate], in data set [2] (setting [10]), the ΔG was -33.1 ± 0.42 kJ/mol, the ΔH is -38.9 ± 1.7 kJ/mol and the “−TΔS” value is 5.86 ± 1.3 kJ/mol. For the same molecule, the “N (number of binding sites)” value in data set [2] (setting [11]) worked out at 0.9 ± 0.1. In data set [2] (setting [12]), the Kd came out at 1.6 ± 0.2 µM.
In the case of `COc1cc(C(=O)O[C@@H]2Cc3c(O)cc(O)cc3O[C@@H]2c2cc(O)c(O)c(O)c2)cc(O)c1O` [EGCg-3′′-O-Me, (−)-epigallocatechin-3′′-O-methylether gallate], the N is on record as 1.1±0.1 in data set [2] (S3 Table, temperature 288 K); 1.0±0.1 in data set [2] (S3 Table, temperature 293 K); 1.0±0.1 in data set [2] (S3 Table, temperature 298 K); 1.1±0.1 in data set [2] (S3 Table, temperature 303 K). In addition, the ΔG in data set [2] (S3 Table, temperature 288 K) was -37.2 ± 0.42 kJ/mol; in data set [2] (S3 Table, temperature 293 K), -38.9 ± 0.42 kJ/mol; in data set [2] (S3 Table, temperature 298 K) it was -39.3 ± 0.42 kJ/mol; in data set [2] (S3 Table, temperature 303 K) it was -39.3 ± 0.84 kJ/mol; in data set [2] (setting [10]) it was -39.3 ± 0.42 kJ/mol. Also, the ΔH was -23.8 ± 5.02 kJ/mol in data set [2] (S3 Table, temperature 288 K); -28.9 ± 7.11 kJ/mol in data set [2] (S3 Table, temperature 293 K); -31 ± 3.8 kJ/mol in data set [2] (S3 Table, temperature 298 K); -36.4 ± 2.1 kJ/mol in data set [2] (S3 Table, temperature 303 K); -33.1 ± 3.8 kJ/mol in data set [2] (setting [10]). Besides, the “−TΔS” value in data set [2] (S3 Table, temperature 288 K) was -13.4 ± 5.02 kJ/mol; in data set [2] (S3 Table, temperature 293 K) it was -10 ± 7.11 kJ/mol; in data set [2] (S3 Table, temperature 298 K), -7.95 ± 3.8 kJ/mol; in data set [2] (S3 Table, temperature 303 K), -2.9 ± 1.7 kJ/mol. In addition, the Kd in data set [2] (S3 Table, temperature 288 K, read-out: KD) is 0.19 ± 0.04 µM; in data set [2] (S3 Table, temperature 293 K, read-out: KD), 0.12 ± 0.02 µM; in data set [2] (S3 Table, temperature 298 K, read-out: KD), 0.14 ± 0.02 µM; in data set [2] (S3 Table, temperature 303 K, read-out: KD), 0.16 ± 0.04 µM; in data set [2] (setting [12]), 0.14 ± 0.02 µM; in data set [2] (human, human serum albumin (HSA) 50 µM in buffer, pH 6.8, Table 2, methylated catechin derivatives, ITC, 298 K, 50 mM sodium phosphate pH 6.8, read-out: KD) it was 0.2 µM. In addition, in data set [2] (setting [11]), the “N (number of binding sites)” value is reported as 1.0 ± 0.1. Further, the “ΔCp (change in heat capacity)” value in data set [2] (slope of ΔH versus temperature, 288 to 303 K) is reported as −195 cal mol^−1 K^−1.
On to `COc1c(O)cc([C@H]2Oc3cc(O)cc(O)c3C[C@H]2OC(=O)c2cc(O)c(O)c(O)c2)cc1O` [EGCg-4′-O-Me, (−)-epigallocatechin-4′-O-methylether gallate], for which, in data set [2] (setting [10]), the ΔG was -33.1 ± 0.42 kJ/mol, the ΔH was -29.3 ± 0.42 kJ/mol and the “−TΔS” value is -3.3 ± 0.42 kJ/mol. Besides, the “N (number of binding sites)” value in data set [2] (setting [11]) is recorded as 0.9 ± 0.1. In addition, the Kd in data set [2] (setting [12]) is 1.7 ± 0.1 µM.
On to `COc1c(O)cc(C(=O)O[C@@H]2Cc3c(O)cc(O)cc3O[C@@H]2c2cc(O)c(O)c(O)c2)cc1O` [EGCg-4′′-O-Me, (−)-epigallocatechin-4′′-O-methylether gallate], for which, in data set [2] (setting [10]), the ΔG was -34.3 ± 0.42 kJ/mol, the ΔH was -41 ± 0.42 kJ/mol and the “−TΔS” value was 6.69 ± 0.42 kJ/mol. Moreover, the “N (number of binding sites)” value in data set [2] (setting [11]) is listed as 1.0 ± 0.1. In data set [2] (setting [12]), the dissociation constant Kd amounted to 1 ± 0.1 µM.
For the molecule `CCOC(=O)c1cc(O)c(O)c(O)c1` [EtGa, Ethyl gallate], the “change of binding affinity” value in data set [2] (ITC) is reported as “increased”. The Kd in data set [2] (setting [8]) was 45.7 µM. For the same molecule, the Kd in data set [2] (setting [9]) was 16.6 µM. The same molecule showed a ΔH/ΔG in data set [2] (Table 1, ITC, 298 K) of 24%. Further, in data set [2] (setting [5]), the ΔG is -24.7 ± 1.3 kJ/mol, the ΔH is -5.86 ± 0.42 kJ/mol and the “−TΔS” value was -18.8 ± 1.7 kJ/mol. Moreover, the “N (number of binding sites)” value in data set [2] (setting [6]) is listed as 1.0 ^b. In addition, the Kd in data set [2] (setting [7]) amounted to 46 ± 23 µM.
For the molecule `Oc1cc(O)c2c(c1)O[C@@H](c1cc(O)c(O)c(O)c1)[C@H](O)C2` [GC, (−)-gallocatechin], in data set [1], the Tm came to 69.3 ± 0.3 °C and the ΔTm at 500 µM turned out to be 0.7 °C. Further, in data set [2] (KD, S1 Table, ITC binding affinity listed beside Tm), the affinity, expressed as Kd, was 52 ± 16 µM. Binding in data set [2] (KD, Table 1, ITC, 298 K, 50 mM sodium phosphate pH 6.8) was put at a Kd of 52 ± 16 µM. In data set [2] (Table 1, ITC, 298 K), the ΔH/ΔG is 19%. Further, in data set [2] (setting [5]), the ΔG was -24.3 ± 0.84 kJ/mol, the ΔH is -4.6 ± 2.1 kJ/mol and the “−TΔS” value is -19.7 ± 2.9 kJ/mol. In addition, the “N (number of binding sites)” value in data set [2] (setting [6]) was 1.0 ^b.
For the molecule `O=C(O[C@@H]1Cc2c(O)cc(O)cc2O[C@H]1c1cc(O)c(O)c(O)c1)c1cc(O)c(O)c(O)c1` [GCg, (−)-gallocatechin gallate], the Tm in data set [1] was 73.3 ± 0.2 °C. The ΔTm at 500 µM in data set [1] (setting [3]) was determined as 4.6 °C. The “change of binding affinity” value in data set [2] (ITC) is listed as “decreased”. In addition, in data set [2] (ITC, 298 K), the “thermodynamic profile of binding” value is recorded as “entropy-driven”. Further, the Kd in data set [2] (setting [4]) stood at 8.8 ± 3.4 µM. Moreover, the Kd in data set [2] (setting [9]) is 18.6 µM. This molecule registered a ΔH/ΔG in data set [2] (Table 1, ITC, 298 K) of 43%. In data set [2] (setting [5]), the ΔG is -28.9 ± 0.84 kJ/mol, the ΔH was -12.6 ± 0.42 kJ/mol and the “−TΔS” value is -16.3 ± 1.3 kJ/mol. In addition, the “N (number of binding sites)” value in data set [2] (setting [6]) was determined as 1.2 ± 0.2. Further, the Kd in data set [2] (setting [7]) was found to be 8.8 ± 3.4 µM.
